In patent US20110081317A1, “Enhancing Gene Transfer” (UNIVERSITY OF ROCHESTER, priority 2007, published 2011):
Peptide text beside a SMILES is read from it. * marks the point of attachment. Cbz = O=C(OCc1ccccc1)*

Experiments:
[1] = tested on: COS cells stably transfected with Fc receptor (CD64) and its associated gamma chain; assay: Plasmid/Lipofectamine-mediated luciferase gene transfer in CD64-expressing COS cells; type: cell-based; conditions: 30 min pretreatment, luciferase at 48 h; for increase in plasmid gene transfer efficiency: nocodazole 5 μM or paclitaxel 20 μg/ml
Method: FIG. 12 is a graph showing plasmid mediated luciferase gene transfer in cells treated with a microtubule inhibitor. A DNA plasmid encoding a luciferase reporter gene was mixed with Lipofectamine. This was then added to COS cells that had been stably transfected with expression plasmids encoding a cellular Fc receptor (CD64) and its associated gamma chain, in the presence or absence (DNA only and DNA+DMSO) of latrunculin A (120 nM), paclitaxel (20 μg/ml), or nocodazole (5 μM). Cells were harvested 48 hours later and lysed, and luciferase activity measured.
A DNA plasmid encoding a luciferase reporter gene was mixed with Lipofectamine™ (Invitrogen, Carlsbad, Calif.). This was then added to COS cells that had been stably transfected expression plasmids encoding a cellular Fc receptor
(CD64) and its associated gamma chain. DNA was added to cells that had been pretreated for 30 minutes in the presence or absence of the microtubule inhibitors, nocodazole (5 μM) or paclitaxel (20 μg/ml), or the actin polymerization inhibitor, latrunculin A (120 nM). Cells were harvested 48 hours after transfection and lysed, and luciferase activity was measured.

[2] = tested on: COS cells; assay: Phage-mediated luciferase gene transfer in COS cells; type: cell-based, simian; conditions: luciferase at 48 h; for effect on phage-mediated luciferase gene transfer: MOI 1×10^6, omeprazole 50 μM, brefeldin A 500 ng/ml, chloroquine 70 μM for 24 h
Method: (§1) Preparation of bacteriophage lambda lysogens and vector production. The λD1180(luc) lysogen (Dam15 del EcoRI-Sac1 clts857 nin5 Sam100) has been described (Eguchi et al., J. Biol. Chem. 276(28):26204-10, 2001). The λD1180(luc) phage contains a firefly luciferase reporter gene under the regulatory control of the human cytomegalovirus immediate-early promoter. λD1180(luc) phage particles were prepared from E. coli lysogens that were stably transformed with either a plasmid encoding wildtype gpD or plasmids encoding gpD fusion proteins of interest, as described (Zanghi et al., Nucleic Acids Res. 33(18):e160, 2005). λ(luc) particles were purified by CsCl density gradient centrifugation and titered on LE392 E. coli cells (Zanghi et al., Nucleic Acids Res. 33(18):e160,2005).
(§2) Cells lines and phage transduction. Human embryonic kidney (HEK) 293 cells and COS simian kidney cells were obtained from American Type Culture Collection (ATCC), P.O. Box 1549, Manassas, Va. 20108. Cells were cultured in Dulbecco's Modified Eagle's Medium (DMEM) containing 10% fetal bovine serum, plus 2 mM L-glutamine and 100 U/ml penicillin, 100 μg/ml streptomycin. Twenty-four to forty-eight (24-48) hours following addition of phage to cells, cultures were washed with phosphate buffered saline (PBS) and lysed in passive lysis buffer (Promega Corporation, Madison, Wis.). Protein content in the lysates was quantitated by Bradford assay, and equal amounts of lysate (normalized in terms of protein content) were used in luciferase assays. Luciferase assay data are reported in relative light units.
(§3) To analyze the function of the proteasome in phage-mediated gene transfer, HEK 293A cells and COS-7 cells were incubated with luciferase encoding phage particles, in the presence or absence of three different pharmacologic inhibitors of proteasome activity (lactacystin, bortezomib and MG132). Lactacystin is an irreversible inhibitor of the 20S-proteasome, while bortezomib and MG132 are reversible inhibitors of the 26S-proteasome complex. […] The latter phage were generated by producing genetically gpD-deficient lambda phage particles in E. coli host cells that expressed a recombinant derivative of gpD, fused to a truncated PEST-like motif derived from seeligeriolysin O, a cholesterol-dependent cytolysin of Listeria seeligeri.

[3] = tested on: HEK 293 cells; assay: Phage-mediated luciferase gene transfer in HEK 293 cells; type: cell-based, Human; conditions: for effect on phage-mediated luciferase gene transfer: MOI 1×10^6, omeprazole 50 μM, brefeldin A 500 ng/ml, chloroquine 50 μM for 24 h
Method: as §1, §2, §3

[4] = tested on: HEK 293 cells; assay: Quantitative analysis of intranuclear lambda phage genomic DNA (qPCR); type: cell-based, Human; conditions: Tpell phage, MOI 1×10^6, bortezomib 10 nM for 16 h, harvest at 24 h, p<0.01 vs untreated
Method: Quantitative analysis of intranuclear lambda phage genomic DNA. HEK 293 cells were incubated with phage lambda at a MOI of 10^6 in the presence or absence of 10 nM bortezomib. Sixteen (16) hours later, media was replaced with bortezomib-free DMEM (10% FBS); twenty-four (24) hours thereafter, cells were washed with cold PBS and non-internalized phage particles were then removed by performing 3 cold acid washes (0.2M CH3COOH, 0.5M NaCl, pH2.5), as described (Lankes et al., J. Appl. Microbiol 102(5):1337-49, 2007). […] Phage genomic DNA in the nuclear lysate was quantitated by DNA qPCR analysis on a BioRad iCycler using a TaqMan® (Roche Molecular Systems, Inc., Pleasanton, Calif.) primer/probe set specific for the lambda phage integrase gene (Probe: FAM-5′-[sequence]-3′-TAMRA (SEQ ID NO:2), Forward-5′-[sequence]-3′ (SEQ ID NO:3), Reverse-5′-[sequence]-3′ (SEQ ID NO:4)). Cellular chromosomal DNA in the nuclear lysate was also quantitated by DNA qPCR analysis using a TaqMan® (Roche Molecular Systems, Inc., Pleasanton, Calif.) primer/probe set specific for the 18S ribosomal RNA gene (Probe: FAM-5′-[sequence]-3′-TAMRA (SEQ ID NO:5), Forward-5′-[sequence]-3′ (SEQ ID NO:6), Reverse-5′-[sequence]-3′ (SEQ ID NO:7)). […]

[5] = tested on: HEK 293 cells; assay: Plasmid (pCMV:luc) luciferase expression in transiently transfected HEK 293 cells; type: cell-based, Human; conditions: pCMV:luc transfected HEK 293; bortezomib 10 nM for 16 h; luciferase at 48 h
Method: Transient transfection of cells with plasmid DNA. 1×10^4 HEK 293 cells were seeded into 96-well plates and incubated overnight. Cells were then transfected with 50 ng of a mammalian expression plasmid encoding the luciferase reporter gene (pgWiz-CMV luciferase) using lipofectamine-2000 reagent in the presence or absence of lOnM bortezomib. Four (4) hours thereafter, media were removed and fresh media were added (with or without bortezomib). Cells were incubated for an additional 12 hours, and media were again replaced (this time without any exogenous drug). Forty-eight (48) hours after transfection of the cells, they were washed with PBS, incubated in 1× passive lysis buffer (Promega Corporation, Madison, Wis.) and lyzed using two freeze-thaw cycles. Protein content within the lysates was then quantitated using Bradford assay and equal amounts of lysate (normalized in terms of protein content) were used in luciferase assays. Luciferase assay data are reported in relative light units.
Therefore, a control experiment was performed to determine whether proteasome inhibition exerted an effect on luciferase expression from a non-phage based gene transfer agent containing the same luciferase expression cassette present in λD1180(luc). […]

[6] = tested on: HEK 293 cells; assay: Cytotoxicity / tolerability of proteasome inhibitors in HEK 293 cells; type: cell-based, Human
[7] = tested on: COS-7 cells; assay: Adenovirus vector (AdLucGFP) mediated luciferase gene transfer in COS-7 cells; type: cell-based; conditions: AdLucGFP MOI 10, latrunculin A 120 nM added 30 min before transduction
Method: FIG. 13 is a graph showing, in cells treated with paclitaxel, nocodazole, or latrunculin A, adenoviral-mediated luciferase gene transfer. Latrunculin A ([…]), paclitaxel (20 μg/ml), or nocodazole (5 μM) was added to cells 30 minutes prior to transduction of COS-7 cells with a luciferase-expressing adenovirus vector (AdLucGFP) at a multiplicity of infection (MOI) of 10. Media were changed 24-hours post-transfection, and cells were lysed in Passive Lysis Buffer 24 hours later. Protein quantities were standardized and luciferase activity was measured in the cell lysates. The mean control level is shown as Ad only.
Latrunculin A (120 nM), paclitaxel (Taxol® (Bristol Meyers Squibb, Princeton, N.J.), 20 μg/ml), or nocodazole (5 μM) was added to cells 30 minutes prior to transduction of COS-7 cells with a luciferase-expressing adenovirus vector (AdLucGFP) at a multiplicity of infection (MOI) of 10. Media were changed 24-hours post-transfection, and cells were lysed in Passive Lysis Buffer 24 hours later. Protein quantities were standardized and luciferase activity was measured in the cell lysates.

[8] = tested on: HEK 293 cells; assay: Measurement of endosomal pH by flow cytometry of fluorescein/tetramethylrhodamine dextran; type: cell-based, Human; conditions: 500 nM bafilomycin A1
Method: Measurement of endosomal pH. 5×10^5 HEK293 cells were preincubated in DMEM medium with 10% FBS (DMEM-10) overnight, after which the medium was replaced by DMEM-10 containing 2 mg/ml 70kD fluorescein and tetramethylrhodamine dextran (Invitrogen, Carlsbad, Calif.) plus either 100 nM or 500 nM bafilomycin A1 (BAF) or 2 mg/mL of nigericin (positive control) or no drug (negative control). One and a half (1.5) hours later, cells were washed in warm PBS and fresh media was added (with or without BAF or nigericin, as appropriate). Two (2) hours thereafter, cells were again washed with warm PBS, detached by trypsinization, washed with fresh media (with or without BAF or nigericin, as appropriate), and pelleted by centrifugation (5 minutes, 1000 g at 4° C.). Fluorescein
(F) and tetramethylrhodamine (T) fluorescence were quantitated by flow cytometric analysis using a FACS Calibur (Becton Dickinson). A standard curve was generated by suspending aliquots of cells (in the presence of 2 mg/ml of nigericin) in PBS at pH 4, 4.4, 5, 5.4, 6 and 6.4. The ratio of T/F fluorescence was then plotted against pH, to generate a standard curve; data from the bafilomycin-treated and non-treated cells were then extrapolated to this curve, in order to calculate endosomal pH.

[9] = Tpell phage, luciferase at 48 h

## COC(=O)Nc1nc2ccc(C(=O)c3cccs3)cc2[nH]1 [nocodazole]
[1]
  increase in plasmid gene transfer efficiency: approx 50 fold

## COc1ccc2[nH]c([S+]([O-])Cc3ncc(C)c(OC)c3C)nc2c1 (stereo not shown) [omeprazole]
[2]; Tpell phage
  effect on phage-mediated luciferase gene transfer: no effect
[3]; [9]
  effect on phage-mediated luciferase gene transfer: no effect

## CC(C)C[C@@H](C=O)NC(=O)[C@H](CC(C)C)NC(=O)[C@H](CC(C)C)NC(=O)OCc1ccccc1 [MG132] (Cbz-Leu-Leu-Leu-aldehyde)
[2]; WT and Tpell phage, MOI 1×10^6, lactacystin 3 μM, bortezomib 10 nM, MG132 1 μM for 16 h
  effect on phage-mediated luciferase gene expression: strong trend
[3]; WT and Tpell phage, MOI 1×10^6, MG132 1 μM for 16 h, luciferase at 48 h, vs untreated cells
  enhancement of phage-mediated luciferase expression: 5-10 fold

## CC(=O)O[C@H]1C(=O)[C@@]2(C)[C@H]([C@H](OC(=O)c3ccccc3)[C@]3(O)C[C@H](OC(=O)[C@H](O)[C@@H](NC(=O)c4ccccc4)c4ccccc4)C(C)=C1C3(C)C)[C@]1(OC(C)=O)CO[C@@H]1C[C@@H]2O [paclitaxel]
[1]
  increase in plasmid gene transfer efficiency: approx 50 fold

## CC(C)C[C@H](NC(=O)[C@H](Cc1ccccc1)NC(=O)c1cnccn1)B(O)O [bortezomib]
[4]
  nuclear accumulation of phage DNA (copies of lambda phage genomic DNA per cell): statistically significant increase
[5]
  effect on plasmid-mediated luciferase expression: no effect
[3]; Tpell phage, MOI 1×10^6, bortezomib 10 nM for 24 h, luciferase at 48 h
  effect of extended exposure on phage-mediated gene transfer: robust, statistically significant, enhancement
[3]; Tpell phage, MOI 1×10^6, drugs for 24 h, luciferase at 48 h (FIG. 9)
  effect on phage-mediated luciferase gene expression, agents alone and combined: modest increase
[6]
  cytotoxicity relative to the other proteasome inhibitors tested: least cytotoxic

## C[C@H]1CCC/C=C/[C@@H]2C[C@H](O)C[C@H]2[C@H](O)/C=C/C(=O)O1 [brefeldin A]
[2]; Tpell phage
  effect on phage-mediated luciferase gene transfer: no effect
[3]; [9]
  effect on phage-mediated luciferase gene transfer: no effect

## C/C1=C/C(=O)O[C@@H]2C[C@@H](CC[C@H](C)/C=C\C=C\CC1)O[C@@](O)([C@@H]1CSC(=O)N1)C2 [latrunculin A]
[7]
  effect on adenoviral gene transfer efficiency: no effect
[1]; latrunculin A 120 nM
  effect on efficiency of plasmid DNA expression: no effect

## CO/C1=C\C(C)=C\[C@@H](C)[C@@H](O)[C@@H](C)C/C(C)=C/C=C/[C@H](OC)[C@@H]([C@@H](C)[C@@H](O)[C@H](C)[C@@]2(O)C[C@@H](O)[C@H](C)[C@@H](C(C)C)O2)OC1=O [bafilomycin A1]
[2]; Tpell phage, MOI 1×10^6, bafilomycin A for 24 h
  effect on phage-mediated gene transfer: no effect
[3]; Tpell phage, MOI 1×10^6, bafilomycin A for 24 h, luciferase at 48 h
  effect on phage-mediated gene transfer: no effect
[8]
  effect on endosomal pH: sufficient to raise endosomal pH

## CCN(CC)CCCC(C)Nc1ccnc2cc(Cl)ccc12 (stereo not shown) [chloroquine]
[2]; Tpell phage
  effect on phage-mediated luciferase gene transfer: statistically significant enhancement
